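The compound was tested at five concentrations on cells cultured in 96-well plates, with a 48-hour exposure period. Definition used: TGI = concentration required for complete inhibition of growth.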

Test systems include MOLT-4 leukemia; MDA-MB-435; SF-539 CNS; HS 578T breast; SNB-75 CNS; MDA-N; NCI/ADR-RES ovarian; NCI-H522 lung; RPMI-8226 leukemia; UO-31 renal; A549 NSCLC; HT29 colon; NCI-H226 lung; NCI-H23 lung; DMS 273 small cell lung; DMS 114 small cell lung; HOP-18 NSCLC; KM20L2 colon; A498 renal; CAKI-1 renal.
Common to all, as to assay: DTP human tumour cell line panel, 48 h

In general, TGI refers to the concentration giving total growth inhibition. For `CC(=O)Nc1ccc(Sc2nnc(NC(C)=O)s2)cc1`, the TGI in the test with MOLT-4 leukemia, in the test with MDA-MB-435, with SF-539 CNS, in the test with HS 578T breast, with SNB-75 CNS and in the test on MDA-N was more than 100 µM throughout. The total growth inhibition concentration (TGI) in the test with NCI/ADR-RES ovarian, in the test with NCI-H522 lung, in the test on RPMI-8226 leukemia, in the test with UO-31 renal and in the test with A549 NSCLC was more than 100 µM each time.

Take `CCN1CCC(O)(c2ccc(O)cc2)C(C(=O)c2ccc(O)cc2)C1` (stereo not given): the TGI with MOLT-4 leukemia is 46 µM; in the test on MDA-MB-435, 33.3 µM; in the test on HT29 colon, 64.9 µM; in the test with HS 578T breast, more than 100 µM; in the test with SNB-75 CNS, 60.1 µM; with NCI-H226 lung, 61.9 µM. The TGI in the test on NCI/ADR-RES ovarian amounted to 71 µM; in the test on RPMI-8226 leukemia, 33.4 µM; with UO-31 renal, 36 µM; in the test with NCI-H23 lung, 44.4 µM.

Consider `Cc1ccc(-c2cc(-c3ccco3)c(C#N)c(=O)n2C2OC(CO)C(O)C(O)C2O)cc1` (stereo not given), for which the TGI in the test with MOLT-4 leukemia, in the test on DMS 273 small cell lung, in the test with HT29 colon, in the test with NCI-H226 lung, with DMS 114 small cell lung and in the test with NCI-H522 lung was more than 100 µM throughout. Moreover, the TGI in the test on RPMI-8226 leukemia was more than 100 µM; with UO-31 renal it was more than 100 µM; in the test on NCI-H23 lung it was more than 100 µM; with HOP-18 NSCLC it was more than 100 µM; in the test with KM20L2 colon, more than 100 µM; in the test with A498 renal it was 50.9 µM.

On to `Cn1c(=O)c(Cl)c(N=[N+]=[N-])c2ccccc21`, for which the concentration for total growth inhibition (TGI) with MOLT-4 leukemia, with SF-539 CNS, with CAKI-1 renal, with HT29 colon, with HS 578T breast and in the test with SNB-75 CNS was more than 100 µM throughout. Also, the TGI in the test on NCI-H226 lung, with MDA-N, in the test with NCI/ADR-RES ovarian, in the test with NCI-H522 lung, in the test on UO-31 renal and in the test with NCI-H23 lung was more than 100 µM throughout. Besides, the concentration for total growth inhibition (TGI) with A549 NSCLC and in the test with A498 renal was more than 100 µM in each case.

Turning to `CCOC(=O)C(=O)NC12CC3CC(CC(C3)C1)C2`, the total growth inhibition concentration (TGI) in the test with DMS 273 small cell lung, with SF-539 CNS, in the test on CAKI-1 renal, with HT29 colon, with SNB-75 CNS and in the test with NCI-H226 lung was more than 100 µM throughout. Also, the concentration for total growth inhibition (TGI) in the test with DMS 114 small cell lung, in the test with NCI-H522 lung, in the test with RPMI-8226 leukemia, with UO-31 renal, with NCI-H23 lung and in the test on A549 NSCLC was more than 100 µM each time. For the same compound, the TGI with HOP-18 NSCLC, in the test on KM20L2 colon and in the test on A498 renal was more than 100 µM each time.

As to `O=[N+]([O-])C(=C/c1cccs1)/C(=C\c1cccs1)[N+](=O)[O-]`, the TGI in the test on MOLT-4 leukemia turned out to be 1.3 µM; in the test with MDA-MB-435 it was 2.23 µM; with SF-539 CNS it was 0.417 µM; in the test with CAKI-1 renal, 1.41 µM; with HT29 colon, 6.13 µM; in the test on HS 578T breast it was 50.7 µM. For the same compound, the total growth inhibition concentration (TGI) in the test with SNB-75 CNS was more than 95.2 µM; with NCI-H226 lung, 9.84 µM; in the test on MDA-N it was 2.65 µM; with NCI/ADR-RES ovarian, 5.4 µM; in the test on RPMI-8226 leukemia, 1.14 µM; in the test on NCI-H23 lung, 3.52 µM. This compound also displayed a TGI in the test with A549 NSCLC of 9.59 µM.

The record behind these values is PubChem BioAssay (NCI).
